The text below walks through data of patent US10351559B2, “Maleate salts of a B-RAF kinase inhibitor, crystalline forms, methods of preparation, and uses therefore” (BeiGene, Ltd., priority 2015, dated 2019).

Series [1] in a line: hygroscopicity (moisture sorption) by DVS. In kind it is physicochemical. The conditions noted are these: from 0 to 80% RH. From the text: The free base of Compound 1 was obtained originally as an amorphous solid, which is slightly hygroscopic with 2.2% water gain from 0 to 80% RH. No form transformation was observed after dynamic vapor sorption (DVS).
Series [2] in a line: short-term stability study (1 week, 60° C. and 40° C./75% RH). The series is classed as physicochemical. On the procedure:
Weighed about 2 mg (For XRPD: 10 mg) of each of the above salts in a 40 mL glass vial, separately. The free base form was used as control. The closed samples were capped and sealed with parafilm, while the opened samples were covered by aluminum foil with pinhole. All the samples were stored in stability chamber or dry oven at the corresponding conditions (60° C. and 40° C./75% RH) for 1 week.

A further series is described as follows: aqueous solubility study. The conditions noted are these: listed as free base of Compound 1. The series is classed as physicochemical.
A short description of a further series: tissue distribution. The conditions noted are these: various tissues, brain. The series is classed as in vivo.
For a further series, the system named is CYP3A. Put plainly: CYP isoforms responsible for metabolism. In kind it is in vitro ADME.
Series [3] in a line: pharmacokinetic comparison of sesqui-maleate and free base, oral. The conditions noted are these: dogs, oral dose 1 mg/kg (free base); listed as Free Base (Lyophilized Amorphous Form), 1 mg/kg. The series is classed as in vivo, Beagle dogs. From the text: Drugs and reagents: Crystalline Form A* of Compound 1 Sesqui-Maleate with particle sizes of D90=4.1 um, D10=1.5 um, D50=2.4 um after micronization. The material content (purity) was not less than 98.0%.
Experiment animals: Beagle dogs, male and female.
Pharmaceutical preparation: Weigh the appropriate amount of each substance and disperse in 0.5% sodium carboxymethyl cellulose (for the free base of Compound 1) or 0.5% methyl cellulose solution (for Compound 1 Sesqui-Maleate). Prepare a suspension at the desired concentration of Compound 1. All the doses and concentrations of Compound 1 were calculated with free base in this study.
Administration and sample collection: The dosing solutions will be freshly prepared prior to dose administration. The actual body weights and actual volume injected will be recorded accordingly. The dogs were fasted overnight and were allowed to intake food four hours after dosing. Each suspension was administrated orally to dogs at a dose ranged from 0.5 to 15 mg/kg. Blood samples (˜1.0 mL) will be collected at pre-dose and at different times up to 36 hours postdosing via cephalic vein plexus. Whole blood will be processed by centrifugation and plasma samples will be collected and kept at freezer prior to analysis. Plasma samples were processed by protein precipitation. Concentrations of Compound 1 in the plasma samples were determined using a validated liquid chromatography-tandem mass spectrometry (LC-MS/MS) method. The plasma concentration-time data were analyzed using a non-compartmental model using Pharsight WinNonlin.

Series [4] relates to BRAF V600E and KRAS cancers. The experiment in a line: Phase I clinical study. In kind it is in vivo, human.
Setting [5] is: 16 KRAS cancer patients treated.

2-hydroxyethanesulfonate: in series [1], the “water (weight) gain” value is “around 4%”. The TRS % was found to be 0.08% in series [2] (0 day); 0.51% in series [2] (40° C./75% RH, 1 week); 1.16% in series [2] (60° C., 1 week). The “chemical degradation” value in series [2] (after one week at 60° C. and 40° C./75% RH) is “showed degradations”. Besides, the “appearance by visual observation” value in series [2] (both conditions after 1 week) is “no change”.

Consider `O=C1CCc2c(Oc3ccc4c(c3)[C@@H]3[C@H](O4)[C@H]3c3nc4ccc(C(F)(F)F)cc4[nH]3)ccnc2N1` [Compound 1, 5-(((1R,1aS,6bR)-1-(6-(trifluoromethyl)-1H-benzo[d]imidazol-2-yl)-1a,6b-dihydro-1H-cyclopropa[b]benzofuran-5-yl)oxy)-3,4-dihydro-1,8-naphthyridin-2(1H)-one], for which, in the series “aqueous solubility study”, the “solubility in water” value is listed as “substantially insoluble in water”. The molecule further had an aqueous solubility in the series “aqueous solubility study” (water, LOQ at 0.001 mg/mL) below 1 µg/mL. Moreover, in series [1], the “water (weight) gain” value was 2.2%. For the same molecule, the TRS % in series [2] (0 day, listed as API free base) came to 0.12%; in series [2] (40° C./75% RH, 1 week, listed as API free base), 0.11%; in series [2] (60° C., 1 week, listed as API free base) it was 0.12%. Moreover, the tissue distribution result in the series “tissue distribution” is “widely distributed to various tissues, but was low in brain tissue”. Besides, in the series on CYP3A, the “CYP isoform responsible for metabolism” value is listed as “CYP3A was the major CYP isoform”. In series [3], this molecule displayed a Cmax of 257 ng/mL. Besides, in series [3], the “Dose-Normalized AUC0-inf” value was 1512 ng·kg·h/mL/mg. Moreover, in series [4] (setting [5]), the “number of PR” value is 3 PR. In addition, in series [4] (setting [5]), the “patients survived more than 2.2 months” value is “at least 12 patients”. Also, the clinical response entry in series [4] (BRAF V600E CRC patients) is “some anti-tumor activities”; in series [4] (BRAF V600E PTC patients), “partial responses”; in series [4] (BRAF V600E melanoma patients), “partial responses”.
